Source: PubChem BioAssay (NCI)
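48-hour exposure; five concentrations; linearly interpolated endpoints. Abbreviation: GI50, concentration required for 50% inhibition of growth. TGI is the concentration that stops growth completely.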

Key:
Assay in all cases: growth of human tumour cells (NCI), 48 h
HOP-62 NSCLC = tested on: HOP-62 NSCLC
SW-620 colon = tested on: SW-620 colon
OVCAR-8 ovarian = tested on: OVCAR-8 ovarian
MDA-MB-231 breast = tested on: MDA-MB-231 breast
HOP-92 NSCLC = tested on: HOP-92 NSCLC
SF-295 CNS = tested on: SF-295 CNS
HCC-2998 colon = tested on: HCC-2998 colon
KM12 colon = tested on: KM12 colon
UACC-62 melanoma = tested on: UACC-62 melanoma
NCI-H226 lung = tested on: NCI-H226 lung

Row | SMILES | GI50 (HOP-62 NSCLC) [µM] | TGI (HOP-62 NSCLC) [µM] | GI50 (SW-620 colon) [µM] | TGI (SW-620 colon) [µM] | GI50 (OVCAR-8 ovarian) [µM] | TGI (OVCAR-8 ovarian) [µM] | GI50 (MDA-MB-231 breast) [µM] | TGI (MDA-MB-231 breast) [µM] | GI50 (HOP-92 NSCLC) [µM] | TGI (HOP-92 NSCLC) [µM] | GI50 (SF-295 CNS) [µM] | TGI (SF-295 CNS) [µM] | GI50 (HCC-2998 colon) [µM] | TGI (HCC-2998 colon) [µM] | GI50 (KM12 colon) [µM] | TGI (KM12 colon) [µM] | GI50 (UACC-62 melanoma) [µM] | TGI (UACC-62 melanoma) [µM] | GI50 (NCI-H226 lung) [µM] | TGI (NCI-H226 lung) [µM]
1 | COc1ccccc1/C=N\N=C(N/N=C/c1ccccc1OC)N/N=C/c1ccccc1OC | 2.91 | 13.4 | 3.38 | 13.6 | 3.23 | 14.5 | 3.2 | 9.11 | 1.92 | 5.34 | 2.03 | 5.11 | 3.82 | > 100 | 2.96 | 16.2 | 2.55 | 7.71 | 4.08 | > 100
2 | C=CC1CC12C(=O)C1OC2(C)C2C(=O)c3c(O)ccc(O)c3C(=O)C12 (stereo not given) | 9.66 | 25 | 2.32 | 5.88 | 6.24 | 20.2 | 2.33 | 7.38 | 2.69 | 6.59 | 1.39 | 5.55 | 13.8 | 30.1 | 5.83 | 17.3 | 2.37 | 6.31 | 5.8 | 14.2
3 | Cc1ccc2c(c1)NC(=O)CC(c1ccccc1)=N2 |  | > 100 |  | > 100 |  | > 100 |  | 79.9 |  | > 100 |  | > 100 |  | > 100 |  | > 100 |  | > 100 |  | > 100
4 | COc1ccc(/C=C/C(=O)Oc2cc(O)cc(O)c2)cc1 |  | 31.5 |  | > 100 |  | > 100 |  | > 100 |  | > 100 |  | 52.4 |  | > 100 |  | 28.4 |  | > 100 |  | > 100
5 | CC(C)NC(=O)OCc1c(COC(=O)NC(C)C)c(-c2ccc(Cl)cc2)n2c1CCC2 | 3.05 | 16.2 | 3.35 | 19.2 | 4.1 | > 85.5 | 2.96 | 12.3 | 1.41 | 5.09 | 1.58 | 10.6 | 6.77 | 20.4 | 11 | 25.9 | 2.08 | 7.56 | 2.31 | 11.3
6 | O=c1cc(-c2ccccc2)[nH]n1-c1nc2ccccc2[nH]1 | 4.96 | > 100 | 4.48 | > 100 | 4.5 | > 100 | 6.92 | 93.6 | 4.25 | 47.7 | 2.92 | > 100 | 23.1 | > 100 | 5.28 | > 100 | 3.1 | 13.8 | 9.49 | > 100
7 | CCOC(=O)/C=C/C(C(=O)/C=C/c1ccc(O)c(OC)c1)=C(O)\C=C\c1ccc(O)c(OC)c1 | 3.19 | 16.1 | 3.6 | 24.7 | 2.21 | 5.91 | 2 | 8.55 | 10.5 | 30.1 | 14.6 | 47 | 1.77 | 3.74 | 3.96 | > 100 | 1.85 | 3.76 | 1.67 | 5.1
8 | Cc1cc(Cc2cc(C)cc(C(C)(C)C)c2O)c(O)c(C(C)(C)C)c1 | 14.1 | 27.1 | 4.47 | 16 | 5.17 | 16.4 | 9.83 | 21.7 | 4.37 | 16 | 2.54 | 6.23 | 4.3 | 15.9 | 3.79 | 13.6 | 10.4 | 22.2 | 14.2 | 30
9 | CC(=O)O/N=C1/C(c2c(O)[nH]c3cc(Br)ccc23)=Nc2ccccc21 | 2.05 | 4.53 | 1.82 | 3.46 | 1.59 | 4.53 | 1.53 | 3.77 | 1.93 | 5.35 | 2 | 5.47 | 1.68 | 3.08 | 0.398 | 1.91 | 1.17 | 2.75 | 1.45 | 4.74
10 | Cc1c(C)[n+](=O)c(C)c(C)n1[O-] | > 100 | > 100 | > 100 | > 100 | > 100 | > 100 | > 100 | > 100 | 2.91 | > 100 | > 100 | > 100 | > 100 | > 100 | > 100 | > 100 | > 100 | > 100 | > 100 | > 100
11 | NC1=NC(c2ccc(Cl)cc2)C2=C(N1)/C(=C/c1ccc(Cl)cc1)CCC2 (stereo not given) | 15 | 53 | 3.24 | 12.4 | 4.24 | > 32.4 | > 29.6 | > 56.1 | 14.2 | 40.5 | 5.71 | 25.8 | 2.11 | 4.27 | 2.32 | 5.27 | 13.3 | 34.8 | 4.25 | 11.8
12 | COc1ccc2c(c1)C(=O)/C(=C/c1ncc([N+](=O)[O-])n1C)O2 | 2.07 | 5.03 | 0.0843 | 0.426 | 0.261 | 2.81 | 0.299 | 0.826 | 1.23 | 4.51 | 1.5 | 3.88 | 1.54 | 4.59 | 0.279 | 0.973 | 1.29 | 3.12 | 2.09 | 5.3
